Entries after “also recorded” stand apart in the source; their conditions may differ.
Experiments:
MDAH-2774 cells = assay: Proliferation assay (cell number by CASY cell counter, doubling time); format: cell-based, human; conditions: MDAH-2774, HCRP1-silenced vs controls (FIG. 7B)
Experimental: To maintain the logarithmic phase, cells were split at intervals of 48 hours, along with the determination of the cell number by a CASY cell counter (Innovatis AG, Bielefeld, Germany). This procedure was performed in triplicates over a time-span of 6 days and confirmed by a replication of the whole experiment. From the obtained data doubling times (dt) were calculated and depicted as dt-1.

SK-OV-3 cells = assay: as above; format: cell-based, human
Experimental: The SK-OV-3 cell line was cultured equally the MDAH-2774 cell line except for the use of McCoy's medium. For applying the Tet-Off inducible system, founder cell lines were generated by transfecting SK-OV-3 cells with the pTet-Off vector (neo^r) encoding a tetracyclin repressible transactivator (tTA). Resistant colonies were selected with 200 μg/ml G418 and characterized by transient transfection with the luciferase reporter plasmid (pTRE-Luc), whose promoter is induced by the transactivator. Luciferase activity in the presence and absence of tetracycline was measured to identify cells with maximal promoter inducibility. […] These two founder cell lines were used to establish cells inducible for HCRP1-specific shRNA constructs (Open Biosystems; #V2HS 21202, #V2HS 21203), which were cloned into the SIN-TREmiR30-PIG vector (purr) downstream of the tetracycline inducible promoter. Thus, presence of tetracycline in the culture medium would suppress shRNA expression, while its withdrawal would induce the knock-down of HCRP1. […]
To maintain the logarithmic phase, cells were split at intervals of 48 hours, along with the determination of the cell number by a CASY cell counter (Innovatis AG, Bielefeld, Germany). […] From the obtained data doubling times (dt) were calculated and depicted as dt-1.

CS(=O)(=O)CCNCc1ccc(-c2ccc3ncnc(Nc4ccc(OCc5cccc(F)c5)c(Cl)c4)c3c2)o1 [Lapatinib]
dependence of the anti-proliferative effect on HCRP1 expression (MDAH-2774 cells): independent of HCRP1 expression | dependence of the anti-proliferative effect on HCRP1 expression (SK-OV-3 cells; SKOV-3, HCRP1-silenced vs controls (FIG. 7A)): independent of HCRP1 expression; also recorded: unaffected by HCRP1 expression | doubling time (SK-OV-3 cells; SKOV-3 cells, 4 μM Lapatinib, 6 days, HCRP1 status not specified): 37.3 h

— patent publication US20110318344A1, “Tumor Treatment” (MEDIZINISCHE UNIVERSITAET WIEN, priority 2009, published 2011)
